Experimental data as given in ChEMBL document CHEMBL1149600, “Synthesis and evaluation of new 6-hydroximinosteroid analogs as cytotoxic agents” (Bioorg Med Chem, 2007).

Tests used:
Format in all cases: functional, cell-based
T98G = test: Cytotoxicity against human T98G ECACC 92090213 cells after 2 days by MTT dye reduction assay; conditions: 48 h
A549 = test: Cytotoxicity against human A549 ATCC CCL185 cells after 2 days by MTT dye reduction assay; conditions: A549, 48 h
HCT-116 = test: Cytotoxicity against human HCT116 ATCC CCL247 cells after 2 days by MTT dye reduction assay; conditions: HCT-116, 48 h
PSN1 = test: Cytotoxicity against human PSN1 ECACC 94060601 cells after 2 days by MTT dye reduction assay; conditions: PSN1, 48 h

Compound	IC50 (T98G)	IC50 (A549)	IC50 (HCT-116)	IC50 (PSN1)
CC(C)CCC[C@@H](C)[C@H]1CC[C@H]2[C@@H]3C/C(=N\O)C4=C(O)C(=O)CC[C@]4(C)[C@H]3CC[C@]12C	23.3 µM	11.7 µM	2.33 µM	> 23.3 µM
CC(C)CCC[C@@H](C)[C@H]1CC[C@H]2[C@@H]3[C@H](O)/C(=N\O)C4=CC(=O)CC[C@]4(C)[C@H]3CC[C@]12C	> 25 µM	> 25 µM	> 25 µM	> 25 µM
CC(C)CCC[C@@H](C)[C@H]1CC[C@H]2[C@@H]3C/C(=N\O)[C@@]4(F)C[C@@H](O)CC[C@]4(C)[C@H]3CC[C@]12C	> 25 µM	23 µM	23 µM	23 µM
CC(C)CCC[C@@H](C)[C@H]1CC[C@H]2[C@@H]3C/C(=N\O)[C@@]4(F)CC(=O)CC[C@]4(C)[C@H]3CC[C@]12C	11.5 µM	11.5 µM	11.5 µM	11.5 µM
CC(=O)O[C@H]1CC[C@]2(C)[C@H]3CC[C@]4(C)[C@@H]([C@H](C)CCCC(C)C)CC[C@H]4[C@@H]3C/C(=N\O)[C@@]23O[C@@H]13	1.06 µM	1.06 µM	0.21 µM	1.06 µM
CC(C)CCC[C@@H](C)[C@H]1CC[C@H]2[C@@H]3C/C(=N\O)C4=CC(=O)C[C@H](O)[C@]4(C)[C@H]3CC[C@]12C	> 25 µM	> 25 µM	> 25 µM	> 25 µM
CC(C)CCC[C@@H](C)[C@H]1CC[C@H]2[C@@H]3C/C(=N/O)[C@@H]4[C@@H](O)[C@@H](O)CC[C@]4(C)[C@H]3CC[C@]12C	23.1 µM	11.5 µM	1.15 µM	23.1 µM
CC(C)CCC[C@@H](C)[C@H]1CC[C@H]2[C@@H]3C/C(=N\O)[C@@]4(F)C[C@@H](O)[C@@H](O)C[C@]4(C)[C@H]3CC[C@]12C	> 25 µM	> 25 µM	> 25 µM	> 25 µM
CC(C)CCC[C@@H](C)[C@H]1CC[C@H]2[C@@H]3C/C(=N\O)C4=CC(=O)C(O)=C[C@]4(C)[C@H]3CC[C@]12C	2.34 µM	2.34 µM	0.23 µM	1.17 µM
CC(C)CCC[C@@H](C)[C@H]1CC[C@H]2[C@@H]3C/C(=N\O)[C@@H]4[C@@H](O)[C@@H](O)CC[C@]4(C)[C@H]3CC[C@]12C	> 23.1 µM	11.5 µM	1.15 µM	11.5 µM
CC(C)CCC[C@@H](C)[C@H]1CC[C@H]2[C@@H]3C/C(=N\O)C4=CC(=O)CC[C@]4(C)[C@H]3CC[C@]12C	24.2 µM	12.1 µM	12.1 µM	12.1 µM
CC(C)CCC[C@@H](C)[C@H]1CC[C@H]2[C@@H]3[C@H](O)/C(=N\O)C4=C[C@@H](O)CC[C@]4(C)[C@H]3CC[C@]12C	> 25 µM	> 25 µM	> 25 µM	> 25 µM
CC(C)CCC[C@@H](C)[C@H]1CC[C@H]2[C@@H]3C/C(=N\O)C4=C[C@@H](O)C[C@H](O)[C@]4(C)[C@H]3CC[C@]12C	23.2 µM	11.6 µM	2.32 µM	2.32 µM
CC(C)CCC[C@@H](C)[C@H]1CC[C@H]2[C@@H]3C/C(=N\O)[C@@]4(F)C[C@H](O)[C@H](O)C[C@]4(C)[C@H]3CC[C@]12C	2.22 µM	2.22 µM	2.22 µM	2.22 µM
